Our source for the IC50 values is patent US8846698B2, “Pyrrolo[2,3-d]pyrimidine tropomysin-related kinase inhibitors” (Pfizer Limited, priority 2011, dated 2014).

The target of the assay is TRKA (Homo sapiens (Human), UniProt P04629). As to the kind of experiment: Isolated TRK enzyme assay (HTRF KinEASE-TK), TRKA. It counts as biochemical. To be noted: read-out: Trka enzyme (IC50). On the technique in general: Time-resolved FRET reads energy transfer from a long-lived donor to a nearby acceptor.
TRKA, sequence (P04629 441-796): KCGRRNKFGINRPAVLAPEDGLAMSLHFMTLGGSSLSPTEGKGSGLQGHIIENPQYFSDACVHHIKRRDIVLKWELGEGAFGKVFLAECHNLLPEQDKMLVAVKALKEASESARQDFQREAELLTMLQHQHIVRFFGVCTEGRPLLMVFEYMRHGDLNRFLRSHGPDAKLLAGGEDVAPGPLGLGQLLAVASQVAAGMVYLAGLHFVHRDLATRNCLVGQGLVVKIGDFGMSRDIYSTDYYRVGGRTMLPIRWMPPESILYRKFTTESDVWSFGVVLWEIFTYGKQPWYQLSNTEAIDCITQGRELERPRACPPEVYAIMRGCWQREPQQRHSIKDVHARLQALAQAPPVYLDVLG
Turning to `CC(C)n1cc(C(=O)c2cncc(NC(=O)[C@@H](N)Cc3ccc(C(=O)c4ccccc4)cc3)c2)c2cncnc21` [Example 287, 4-benzoyl-N-{5-[(7-isopropyl-7H-pyrrolo[2,3-d]pyrimidin-5-yl)carbonyl]pyridin-3-yl}-L-phenylalaninamide], the IC50 (commonly the concentration that inhibits the measured activity by half) stood at 4350 nM.
In the case of `CC(C)n1cc(C(=O)c2cncc(NC(=O)Cc3cccc(C(=O)c4ccccc4)c3)c2)c2cncnc21` [Example 288, 2-(3-benzoylphenyl)-N-(5-(7-isopropyl-7H-pyrrolo[2,3-d]pyrimidine-5-carbonyl)pyridin-3-yl)acetamide], the half-inhibitory concentration (IC50) came out at 43.1 nM.
As for `CC(C)n1cc(C(=O)c2cncc(NC(=O)Cc3ccc(C(=O)c4ccccc4)cc3)c2)c2cncnc21` [Example 289, 2-(4-benzoylphenyl)-N-(5-(7-isopropyl-7H-pyrrolo[2,3-d]pyrimidine-5-carbonyl)pyridin-3-yl)acetamide], the figure is 1370 nM; as for `CC(C)n1cc(C(=O)c2cncc(NC(=O)c3cccc(C4(C(F)(F)F)N=N4)c3)c2)c2cncnc21` [Example 290, N-{5-[(7-isopropyl-7H-pyrrolo[2,3-d]pyrimidin-5-yl)carbonyl]pyridin-3-yl}-3-[3-(trifluoromethyl)-3H-diaziren-3-yl]benzamide], 167 nM.
As for `CC(C)n1cc(C(=O)c2cncc(NC(=O)c3ccc(C4(C(F)(F)F)N=N4)cc3)c2)c2cncnc21` [Example 291, N-{5-[(7-isopropyl-7H-pyrrolo[2,3-d]pyrimidin-5-yl)carbonyl]pyridin-3-yl}-4-[3-(trifluoromethyl)-3H-diaziren-3-yl]benzamide], the figure is 3230 nM; as for `CC(C)n1cc(C(=O)c2cncc(NC(=O)c3cccc(C(=O)C(F)(F)F)c3)c2)c2cncnc21` [Example 292, N-{5-[(7-isopropyl-7H-pyrrolo[2,3-d]pyrimidin-5-yl)carbonyl]pyridin-3-yl}-3-(trifluoroacetyl)benzamide], 37.7 nM.
The value for `Cn1cc(C(=O)c2cncc(NC(=O)Nc3ccc(Cl)cc3)c2)c2cncnc21` [Example 293, 1-(4-chlorophenyl)-3-{5-[(7-methyl-7H-pyrrolo[2,3-d]pyrimidin-5-yl)carbonyl]pyridin-3-yl}urea] was 20.2 nM; that for `Cn1cc(C(=O)c2cncc(NC(=O)Nc3ccc(C(F)(F)F)cc3)c2)c2cncnc21` [Example 294, 1-{5-[(7-methyl-7H-pyrrolo[2,3-d]pyrimidin-5-yl)carbonyl]pyridin-3-yl}-3-[4-(trifluoromethyl)phenyl]urea] was 61.4 nM; that for `Cn1cc(C(=O)c2cncc(NC(=O)Nc3cccc(C(F)(F)F)c3)c2)c2cncnc21` [Example 295, 1-{5-[(7-methyl-7H-pyrrolo[2,3-d]pyrimidin-5-yl)carbonyl]pyridin-3-yl}-3-[3-(trifluoromethyl)phenyl]urea] was 31.9 nM.
As to `Cn1cc(C(=O)c2cncc(NC(=O)Nc3ccc(OC(F)(F)F)cc3)c2)c2cncnc21` [Example 296, 1-{5-[(7-methyl-7H-pyrrolo[2,3-d]pyrimidin-5-yl)carbonyl]pyridin-3-yl}-3-[4-(trifluoromethoxy)phenyl]urea], the IC50 worked out at 47.7 nM.
As for `CC(C)n1cc(C(=O)c2cncc(N(C)C(=O)Cc3ccc(Cl)cc3)c2)c2cncnc21` [Example 297, 2-(4-chlorophenyl)-N-{5-[(7-isopropyl-7H-pyrrolo[2,3-d]pyrimidin-5-yl)carbonyl]pyridin-3-yl}-N-methylacetamide], the IC50 was 299 nM.
The value for `CC(C)n1cc(C(=O)c2cncc(N(C)C(=O)Cc3ccc(C#N)cc3)c2)c2cncnc21` [Example 298, 2-(4-cyanophenyl)-N-{5-[(7-isopropyl-7H-pyrrolo[2,3-d]pyrimidin-5-yl)carbonyl]pyridin-3-yl}-N-methylacetamide] was 1460 nM; that for `O=C(Cc1ccc(Cl)cc1)Nc1cncc(C(=O)c2cn(C3(CO)COC3)c3ncncc23)c1` [Example 299, 2-(4-Chloro-phenyl)-N-{5-[7-(3-hydroxymethyl-oxetan-3-yl)-7H-pyrrolo[2,3-d]pyrimidine-5-carbonyl]-pyridin-3-yl}-acetamide] was 539 nM.
In the case of `O=C(Cc1ccc(C(F)(F)F)cc1)Nc1cncc(C(=O)c2cn(C3(CO)COC3)c3ncncc23)c1` [Example 300, N-{5-[7-(3-Hydroxymethyl-oxetan-3-yl)-7H-pyrrolo[2,3-d]pyrimidine-5-carbonyl]-pyridin-3-yl}-2-(4-trifluoromethyl-phenyl)-acetamide], the 50% inhibitory concentration (IC50) is 52.2 nM.
As to `O=C(Cc1ccc(Cl)cn1)Nc1cncc(C(=O)c2cn(C3(CO)COC3)c3ncncc23)c1` [Example 301, 2-(5-chloropyridin-2-yl)-N-[5-({7-[3-(hydroxymethyl)oxetan-3-yl]-7H-pyrrolo[2,3-d]pyrimidin-5-yl}carbonyl)pyridin-3-yl]acetamide], the IC50 is 428 nM.
Regarding `O=C(Cn1ccc(C(F)(F)F)n1)Nc1cncc(C(=O)c2cn(C3(CO)COC3)c3ncncc23)c1` [Example 302, N-[5-({7-[3-(hydroxymethyl)oxetan-3-yl]-7H-pyrrolo[2,3-d]pyrimidin-5-yl}carbonyl)pyridin-3-yl]-2-[3-(trifluoromethyl)-1H-pyrazol-1-yl]acetamide], the IC50 worked out at 156 nM.
The value for `NC(=O)Cn1cc(C(=O)c2cncc(NC(=O)Cc3ccc(Cl)cc3)c2)c2cncnc21` [Example 303, N-(5-{[7-(2-amino-2-oxoethyl)-7H-pyrrolo[2,3-d]pyrimidin-5-yl]carbonyl}pyridin-3-yl)-2-(4-chlorophenyl)acetamide] was 1220 nM; that for `CN(C)C(=O)Cn1cc(C(=O)c2cncc(NC(=O)Cc3ccc(Cl)cc3)c2)c2cncnc21` [Example 304, 2-{5-[(5-{[(4-chlorophenyl)acetyl]amino}pyridin-3-yl)carbonyl]-7H-pyrrolo[2,3-d]pyrimidin-7-yl}-N,N-dimethylacetamide] was 3900 nM.
The value for `CNC(=O)Cn1cc(C(=O)c2cncc(NC(=O)Cc3ccc(Cl)cc3)c2)c2cncnc21` [Example 305, 2-(4-chlorophenyl)-N-[5-({7-[2-(methylamino)-2-oxoethyl]-7H-pyrrolo[2,3-d]pyrimidin-5-yl}carbonyl)pyridin-3-yl]acetamide] was 2640 nM; that for `O=C(Cc1ccc(Cl)cc1)Nc1cncc(C(=O)c2c[nH]c3ncncc23)c1` [Example 308, 2-(4-Chlorophenyl)-N-[5-(7H-pyrrolo[2,3-d]pyrimidin-5-ylcarbonyl)pyridin-3-yl]acetamide] was 592 nM; that for `CC1(n2cc(C(=O)c3cncc(NC(=O)Cc4ccc(Cl)cc4)c3)c3cncnc32)COC1` [Example 309, 2-(4-chlorophenyl)-N-(5-{[7-(3-methyloxetan-3-yl)-7H-pyrrolo[2,3-d]pyrimidin-5-yl]carbonyl}pyridin-3-yl)acetamide] was 53.9 nM.
The value for `CC1(n2cc(C(=O)c3cncc(NC(=O)Cc4ccc(Cl)cn4)c3)c3cncnc32)COC1` [Example 310, 2-(5-chloropyridin-2-yl)-N-(5-{[7-(3-methyloxetan-3-yl)-7H-pyrrolo[2,3-d]pyrimidin-5-yl]carbonyl}pyridin-3-yl)acetamide] was 98.4 nM.
In the case of `CC1(n2cc(C(=O)c3cncc(NC(=O)Cn4ccc(C(F)(F)F)n4)c3)c3cncnc32)COC1` [Example 311, N-(5-{[7-(3-methyloxetan-3-yl)-7H-pyrrolo[2,3-d]pyrimidin-5-yl]carbonyl}pyridin-3-yl)-2-[3-(trifluoromethyl)-1H-pyrazol-1-yl]acetamide], the IC50 was found to be 238 nM.
For the compound `CC1(n2cc(C(=O)c3cncc(NC(=O)Cn4cc(C(F)(F)F)nn4)c3)c3cncnc32)COC1` [Example 312, N-(5-{[7-(3-methyloxetan-3-yl)-7H-pyrrolo[2,3-d]pyrimidin-5-yl]carbonyl}pyridin-3-yl)-2-[4-(trifluoromethyl)-1H-1,2,3-triazol-1-yl]acetamide], the 50% inhibitory concentration (IC50) amounted to 166 nM.
The value for `CS(=O)(=O)Cn1cc(C(=O)c2cncc(NC(=O)Cc3ccc(Cl)cc3)c2)c2cncnc21` [Example 314, 2-(4-chlorophenyl)-N-[5-({7-[(methylsulfonyl)methyl]-7H-pyrrolo[2,3-d]pyrimidin-5-yl}carbonyl)pyridin-3-yl]acetamide] was 835 nM.
As for `CC(C)n1cc(C(=O)c2cncc(NC(=O)Cc3cnn(C4CC4)c3C(F)(F)F)c2)c2cncnc21` [Example 315, 2-(1-Cyclopropyl-5-trifluoromethyl-1H-pyrazol-4-yl)-N-[5-(7-isopropyl-7H-pyrrolo[2,3-d]pyrimidine-5-carbonyl)-pyridin-3-yl]-acetamide], the IC50 stood at 39.1 nM.
As for `Cn1cc(C(=O)c2cncc(NC(=O)Cc3ccc(Cl)cc3)c2)c2cncnc21` [Example 319, 2-(4-chlorophenyl)-N-{5-[(7-methyl-7H-pyrrolo[2,3-d]pyrimidin-5-yl)carbonyl]pyridin-3-yl}acetamide], the figure is 188 nM.
As for `Cn1cc(C(=O)c2cncc(NC(=O)CCc3ccc(Cl)cc3)c2)c2cncnc21` [Example 320, 3-(4-chlorophenyl)-N-{5-[(7-methyl-7H-pyrrolo[2,3-d]pyrimidin-5-yl)carbonyl]pyridin-3-yl}propanamide], the figure is 3100 nM; as for `Cc1cccc(CCC(=O)Nc2cncc(C(=O)c3cn(C)c4ncncc34)c2)c1` [Example 321, 3-(3-methylphenyl)-N-{5-[(7-methyl-7H-pyrrolo[2,3-d]pyrimidin-5-yl)carbonyl]pyridin-3-yl}propanamide], 3100 nM; as for `Cn1cc(C(=O)c2cncc(NC(=O)CCc3cccnc3)c2)c2cncnc21` [Example 322, N-{5-[(7-methyl-7H-pyrrolo[2,3-d]pyrimidin-5-yl)carbonyl]pyridin-3-yl}-3-(pyridin-3-yl)propanamide], 9800 nM.
On to `Cn1cc(C(=O)c2cncc(NC(=O)CCc3cccc(Cl)c3)c2)c2cncnc21` [Example 323, 3-(3-chlorophenyl)-N-{5-[(7-methyl-7H-pyrrolo[2,3-d]pyrimidin-5-yl)carbonyl]pyridin-3-yl}propanamide], for which the half-maximal inhibitory concentration (IC50) came to 3100 nM.
As for `Cn1cc(C(=O)c2cncc(NC(=O)CCc3cccc(F)c3)c2)c2cncnc21` [Example 324, 3-(3-fluorophenyl)-N-{5-[(7-methyl-7H-pyrrolo[2,3-d]pyrimidin-5-yl)carbonyl]pyridin-3-yl}propanamide], the 50% inhibitory concentration (IC50) is 3100 nM.
